# Assay results reported in article PMC5066224, “A Novel Resveratrol Based Tubulin Inhibitor Induces Mitotic Arrest and Activates Apoptosis in Cancer Cells” (Scientific Reports, 2016).
# pIC50: −log10 of the molar value.
# Experiments:
# [1] = In vivo pharmacokinetics, HPLC of plasma; parameters: species or system BALB/c mice; conditions: mice, intraperitoneal, 15 mg/kg
# Experimental: Control and SS28 (15 mg/kg b.wt.) treated BALB/c mice were sacrificed and blood was collected at various time points (15, 30 min, 1 and 2 h; 2 each/time point) as described. Plasma (50 μl) was then extracted with acetonitrile, centrifuged (3,000 × g for 15 min) to remove precipitated proteins and the resulting supernatants were analyzed using HPLC (Waters, USA).
# Standard solution of SS28 was prepared by dissolving increasing concentration (25 to 100 μM) of the compound in acetonitrile. Standard calibration curves were plotted using peak area against the concentration of the compound and the retention time of the compound was also determined. Plasma concentrations of the treated groups were extrapolated from standard curves constructed by linear regression in Graph-Pad Prism 4.0 software (GraphPad Software, Inc.).
# SUDHL8 = assay: Trypan blue dye exclusion cell viability assay; assay type: cell-based; conditions: Homo sapiens, SU-DHL-8, 48 h
# Experimental: (§1) The effect of SS28 on viability of CEM, Reh, Nalm6, SUDHL8, Molt4, A549, HeLa 293T, mouse embryonic fibroblast (MEF) and PBMC was determined by trypan blue dye exclusion assay as described previously. Briefly, cells (0.75 × 10^5 cells/ml) were treated with increasing concentrations of SS28 (1, 5, 10 and 20, μM) for 48 and 72 h. DMSO treated cells were used as the vehicle control. Cells were harvested and subjected to trypan blue assay. Data from a minimum of three independent experiments is presented as a histogram with error bars.
# Nalm6 = assay: Trypan blue dye exclusion cell viability assay; assay type: cell-based; conditions: Homo sapiens, NALM-6, 48 h
# Experimental: as §1
# Reh = assay: Trypan blue dye exclusion cell viability assay; assay type: cell-based; conditions: Homo sapiens, 48 h
# Experimental: as §1
# [2] = test system: peripheral blood mononuclear cells (PBMC); assay: Trypan blue dye exclusion cell viability assay; assay type: cell-based; conditions: 48 h
# Experimental: as §1
# A549 = assay: Trypan blue dye exclusion cell viability assay; assay type: cell-based; conditions: Homo sapiens, 48 h
# Experimental: as §1
# CEM = assay: Trypan blue dye exclusion cell viability assay; assay type: cell-based; conditions: Homo sapiens, CCRF-CEM, 48 h
# Experimental: as §1
# Molt4 = assay: Trypan blue dye exclusion cell viability assay; assay type: cell-based; conditions: Homo sapiens, MOLT-4, 48 h
# Experimental: as §1
# HeLa cells = assay: Trypan blue dye exclusion cell viability assay; assay type: cell-based; conditions: Homo sapiens, 48 h
# Experimental: as §1
# [3] = test system: mouse embryonic fibroblast cells (MEF); assay: Trypan blue dye exclusion cell viability assay; assay type: cell-based; conditions: 48 h
# Experimental: as §1
# A549 cells [4] = assay: Immunoblotting of cell cycle and apoptotic proteins; assay type: cell-based, human; conditions: A549, 5 μM, 24, 48 and 72 h
# Experimental: Cell lysate was prepared after treating with SS28 (5 μM for 24, 48 and 72 h) from CEM and A549 cell lines. In brief, cells were harvested, washed with PBS, resuspended in lysis buffer (RIPA, 25 mM Tris (pH 7.6), 150 mM NaCl, 1% NP-40, 1% sodium deoxycholate and 0.1% SDS) containing protease inhibitors. The protein lysate was cleared by centrifugation (14,000 rpm, for 15 min). The protein concentration in the supernatant was determined using the Bradford’s assay.
# For western blot analysis, ~40 μg proteins were resolved over 8–10% SDS–polyacrylamide gel[60][61][62]. Following gel electrophoresis, proteins were transferred to PVDF membrane (Millipore, USAQ9). The primary antibodies used were against Caspase 3, Caspase 9, p73, p53, KU70, KU80, Cyclin B1, CDK6, PARP1 and Actin (Santa Cruz Biotechnology, USA). The membrane was incubated with appropriate HRP-conjugated secondary antibody (2 h at 4° C). The blots were developed using chemiluminescent solution (Immobilon^TM western, Millipore) and scanned by gel documentation system (LAS 3000, FUJI, Japan). Blots were stripped subsequently as per standard protocols and reprobed with anti β-Actin antibody.
# [5] = Toxicity evaluation in normal mice (body weight, haematology, liver and kidney function); assay type: in vivo, BALB/c mice; conditions: 9 doses
# Experimental: A total number of 10 BALB/c mice were used for the study, of which 5 animals served as normal control while, remaining 5 were treated with SS28 (15 mg/kg). Body weight of each animal was monitored throughout the experiment and average body weight was calculated on 21st day of treatment. In order to evaluate the effect of SS28 on physiological functions, blood was collected (21st day) and analysed as described earlier. The blood […] was analyzed using Neubauer’s chamber, and mean values of total red blood cells (RBCs) and white blood cells (WBCs) were determined. Serum was separated and kidney and liver function tests were performed for each animal, to determine alkaline phosphatase (ALP), […] (ALT), creatinine and urea levels as described earlier. Values are presented as mean ± SEM for both the controls and SS28 administered mice.
# CEM cells = assay: Mitochondrial membrane potential (JC-1 staining, flow cytometry); assay type: cell-based, Human; conditions: CEM, 1, 5, 10, 20 μM, 48 h
# Experimental: Flow cytometric analysis of cells stained with JC-1 was used to measure changes in mitochondrial transmembrane potential as described. Briefly, cells were seeded at a density of 1 × 10^5 cells/ml and treated with SS28 (1, 5, 10 and 20 μM). After 48 h, cells were harvested, washed and incubated with JC-1 (5,5′,6,6 tetrachloro-1,1′,3,3′-tetraethyl benzimidazol carbocyanine iodide; Calbiochem, USA) for 15 min. 2,4-Dinitrophenol-treated cells (2,4-DNP) served as the positive control. Cells were processed and analyzed by flow cytometry using CellQuest pro software with an excitation at 488 nm laser and emission at 530 nm. JC-1 monomers emit at 530 nm and J-aggregates emit at 590 nm.
# A549 cells [6] = assay: Immunofluorescence microscopy of spindle microtubule organisation; assay type: cell-based, human; conditions: 24 h
# Experimental: Immunofluorescence microscopy was performed as previously described. A549 cells were grown on coverslips coated with gelatin (0.1%). […] After 24 h of the treatment nonspecific antibody binding sites were blocked using FBS following which cells were incubated with antitubulin antibody (1:500) at RT. Coverslips were washed in PBS, incubated in biotinylated antimouse secondary antibody (1:500; RT for 1 h) followed by Streptavidin-FITC (1:200). Finally, cells were mounted with DABCO and images were captured using Zeiss Fluorescence microscope and analyzed using Axio vision software. Colchicine treated cells were used as a positive control.
# [7] = normal BALB/c mice, 15 mg/kg, 21st day, mean ± SEM
smiles,measurement,setting,value
"COc1cc(/C=C/c2ccc(C)cc2)cc(OC)c1OC [SS28, (E)-1,2,3-trimethoxy-5-(4-methylstyryl)benzene]",level of SS28 in the plasma,[1]; 15 min and 1 h post-treatment,detectable
same,level of SS28 in the plasma,[1]; 30 min after the injection,significant increase
same,level of SS28 in the plasma,[1]; after 1 h of treatment,significant decrease
same,pIC50,SUDHL8,5.57
same,pIC50,Nalm6,4.68
same,pIC50,Reh,5.10
same,pIC50,[2],< 4.46
same,pIC50,A549,5.28
same,pIC50,CEM,5.59
same,pIC50,Molt4,5.29
same,pIC50,HeLa cells,4.49
same,pIC50,[3],5.30
same,Caspase 3,A549 cells [4],showed activation
same,Caspase 9,A549 cells [4],increase in the cleaved Caspase 9 level
same,expression level of Cdk6,A549 cells [4],increased at 24 h followed by a decrease at 48 and 72 h
same,expression levels of p73,A549 cells [4],remained same
same,level of Cyclin B1,A549 cells [4],"maintained throughout the time period, but with a moderate decrease at 48 h"
same,body weight,"[5]; normal BALB/c mice, 15 mg/kg oral",no significant difference
same,number of RBCs and WBCs versus control,"[5]; normal BALB/c mice, 15 mg/kg, 21st day",no significant difference
same,RBC,[5]; [7],6.43 ± 1.32 10^6 cells/mm^3
same,WBC,[5]; [7],3.5 ± 0.99 10^3 cells/mm^3
same,ALP level versus control,"[5]; serum, 15 mg/kg, 21st day",slightly higher
same,level of ALT versus control,"[5]; serum, 15 mg/kg, 21st day",no significant difference
same,levels of creatinine and urea in the serum versus control,"[5]; serum, 15 mg/kg, 21st day",no significant difference
same,mitochondrial membrane potential (JC-1 fluorescence),CEM cells,concentration dependant increase in the green fluoresced cells
same,cells displaying abnormal spindle organisation,"A549 cells [6]; A549, 5 μM",~ 38%
same,Metaphase arrest (number of cells),"A549 cells [6]; A549, 5 μM, total number of cells 78",30
same,Metaphase arrest (number of cells),"A549 cells [6]; A549, 10 μM, total number of cells 387",123
